Test results published in patent US11053260B2, “Tri-cycle compound and applications thereof” (FUJIAN COSUNTER PHARMACEUTICAL CO., LTD., priority 2017, dated 2021).

Test system: HBV
Experiment: HBV in vitro test in quantitative qPCR assay (HBV DNA content in HepG2.2.15 cells)
Format: cell-based
Settings: HBV DNA by qPCR, day 8, read-out: 50% inhibitory concentration (EC50) value of HBV
Experimental: HBV In Vitro Test in Quantitative qPCR Assay
The HBV DNA content in HepG2.2.15 cells was determined by real-time quantitative qPCR assay (real time-qPCR), and the inhibitory effect of the compound on HBV was evaluated by the EC50 value of the compound.
2.1 Cell line: HepG2.2.15 cells
3.1 HepG2.2.15 cells (4×10^4 cells/well) were seeded into a 96-well plate and incubated overnight at 37° C. under 5% CO2.
3.2 On the 2nd day, the compound was diluted into 8 concentrations with 3-time gradient. The compounds with different concentrations were added into the culture wells in duplicate wells. The final concentration of DMSO in the culture medium was 1%. 1 μM GLS4 was used as a 100% inhibition control, and 1% DMSO was used as a 0% inhibition control.
3.3 On the 5th day, the culture medium was replaced with a fresh medium containing the compound.
3.4 On the 8th day, the culture medium in the culture well was collected, and the DNA was extracted with a high-throughput DNA purification kit (Qiagen-51162), of which specific procedure was referred to the product specification.
3.6 15 μL of the reaction mixture was added into each well of a 96-well PCR plate, followed by addition of 10 μL of sample DNA or HBV DNA standards into each well.
3.7 PCR reaction conditions: heating at 95° C. for 10 minutes; then denaturation at 95° C. for 15 seconds, extension at 60° C. for 1 minute, a total of 40 cycles.
3.8.1 Calculation of the percentage of inhibition: % Inh.=[1−(DNA copy number in sample−DNA copy number in 1 μM GLS4)/(DNA copy number in DMSO control−DNA copy number in 1 μM GLS4)]×100
3.8.2 Calculation of EC50: The 50% inhibitory concentration (EC50) value of the compound on HBV was calculated by GraphPad Prism software.

SMILES | EC50 [nM]
O=C(NCCOc1cccnc1)c1ccc2c(c1)NC(=O)c1cccn1S2(=O)=O [WX297] | ≤ 100

Same assay, conditions: Hepatitis B virus, HepG2.2.15, 192 h, HBV DNA by qPCR, day 8, read-out: 50% inhibitory concentration (EC50) value of HBV

SMILES | EC50 [nM]
O=C(NCCC1CCCO1)c1ccc2c(c1)NC(=O)c1cc(F)cn1S2(=O)=O (stereo not shown) [WX270] | 100 to 500
O=C(NCCC1COCCO1)c1ccc2c(c1)NC(=O)c1cc(CC(F)(F)F)cn1S2(=O)=O (stereo not shown) [WX328] | ≤ 100
CC(C)c1cc2n(c1)S(=O)(=O)c1ccc(C(=O)NCCC3COCCO3)cc1NC2=O (stereo not shown) [WX338] | 100 to 500
O=C(NCCc1ccc(F)c(F)c1)c1ccc2c(c1)NC(=O)c1cccn1S2(=O)=O [WX293] | ≤ 100
O=C(NCCOC1CCCC1)c1ccc2c(c1)NC(=O)c1cccn1S2(=O)=O [WX292] | 500 to 1000
O=C(NCCC1CCCO1)c1ccc2c(c1)NC(=O)c1cc(Br)cn1S2(=O)=O (stereo not shown) [WX311] | ≤ 100
Cc1cc2n(c1)S(=O)(=O)c1ccc(C(=O)NCCc3ccc(F)cc3)cc1NC2=O [WX305] | ≤ 100
Cc1cccc2ncc(CNC(=O)c3ccc4c(c3)NC(=O)c3cccn3S4(=O)=O)n12 [WX258] | 100 to 500
O=C(NCCCc1ccc(F)cc1)c1ccc2c(c1)NC(=O)c1cccn1S2(=O)=O [WX299] | 100 to 500
O=C(NCCCC(F)(F)F)c1ccc2c(c1)NC(=O)c1cccn1S2(=O)=O [WX187] | 100 to 500
CSCCNC(=O)c1ccc2c(c1)NC(=O)c1cccn1S2(=O)=O [WX219] | ≤ 100
O=C(NCCC1CCC(F)(F)CC1)c1ccc2c(c1)NC(=O)c1cccn1S2(=O)=O [WX225] | 100 to 500
O=C(NCCn1ccccc1=O)c1ccc2c(c1)NC(=O)c1cccn1S2(=O)=O [WX211] | 500 to 1000
CCc1cc2n(c1)S(=O)(=O)c1ccc(C(=O)NCCC3CCCO3)cc1NC2=O (stereo not shown) [WX185] | ≤ 100
O=C(NCCc1ccccn1)c1ccc2c(c1)NC(=O)c1cccn1S2(=O)=O [WX229] | 100 to 500
Cc1nc(C)c(CNC(=O)c2ccc3c(c2)NC(=O)c2cccn2S3(=O)=O)s1 [WX260] | ≤ 100
CN1CC(CNC(=O)c2ccc3c(c2)NC(=O)c2cccn2S3(=O)=O)OC1=O (stereo not shown) [WX275] | 500 to 1000
CC(C)(C)OC(=O)N1CC(CNC(=O)c2ccc3c(c2)NC(=O)c2cccn2S3(=O)=O)C1 [WX196] | ≤ 100
O=C(NCc1cccc(OC(F)(F)F)c1)c1ccc2c(c1)NC(=O)c1cccn1S2(=O)=O [WX227] | 100 to 500
COC(=O)N1CC(NC(=O)c2ccc3c(c2)NC(=O)c2cccn2S3(=O)=O)C1 [WX201] | 500 to 1000
CC(C)(C)OC(=O)N1CC2C(C1)C2NC(=O)c1ccc2c(c1)NC(=O)c1cccn1S2(=O)=O (stereo not shown) [WX146] | 1000 to 10000
O=C(NCc1ccncc1)c1ccc2c(c1)NC(=O)c1cccn1S2(=O)=O [WX228] | 100 to 500
O=C(NCCC1CCCC1)c1ccc2c(c1)NC(=O)c1cccn1S2(=O)=O [WX184] | 100 to 500
Cc1cc2n(c1)S(=O)(=O)c1ccc(C(=O)NCc3cccnc3)cc1NC2=O [WX306] | ≤ 100
CC(C)c1ncc(CNC(=O)c2ccc3c(c2)NC(=O)c2cc(Cl)cn2S3(=O)=O)s1 [WX255] | ≤ 100

SMILES | EC50 [nM]
O=C(NCCc1cccnc1)c1ccc2c(c1)NC(=O)c1cccn1S2(=O)=O [WX278] | ≤ 100
COc1ccc(CCNC(=O)c2ccc3c(c2)NC(=O)c2cccn2S3(=O)=O)cc1 [WX217] | ≤ 100
Cc1cc2n(c1)S(=O)(=O)c1ccc(C(=O)NCc3cnc(-c4ccc(C#N)cc4)s3)cc1NC2=O [WX308] | ≤ 100
CN(Cc1nc2ccccc2s1)C(=O)c1ccc2c(c1)NC(=O)c1cccn1S2(=O)=O [WX266] | 100 to 500
CC(=O)N1CCOC(CCNC(=O)c2ccc3c(c2)NC(=O)c2cccn2S3(=O)=O)C1 (stereo not shown) [WX322] | ≤ 100
Cc1nnc(CNC(=O)c2ccc3c(c2)NC(=O)c2cccn2S3(=O)=O)s1 [WX271] | 500 to 1000
CC(C)(C)OC(=O)N1CC(NC(=O)c2ccc3c(c2)NC(=O)c2cccn2S3(=O)=O)C1 [WX195] | 500 to 1000
O=C(NCC1CCN(C(=O)Oc2ccccc2)CC1)c1ccc2c(c1)NC(=O)c1cccn1S2(=O)=O [WX286] | 500 to 1000
O=C(NCc1ccc(C(F)(F)F)cc1)c1ccc2c(c1)NC(=O)c1cccn1S2(=O)=O [WX235] | 100 to 500
CS(=O)(=O)N1CC(NC(=O)c2ccc3c(c2)NC(=O)c2cccn2S3(=O)=O)C1 [WX232] | 500 to 1000
O=C(NCCc1cccc(Cl)c1)c1ccc2c(c1)NC(=O)c1cccn1S2(=O)=O [WX300] | 100 to 500
O=C(NCC1CCC(F)(F)CC1)c1ccc2c(c1)NC(=O)c1cccn1S2(=O)=O [WX288] | 100 to 500
CC(C)CC(=O)N1CCC(CNC(=O)c2ccc3c(c2)NC(=O)c2cccn2S3(=O)=O)CC1 [WX287] | 500 to 1000
COCCCNC(=O)c1ccc2c(c1)NC(=O)c1cccn1S2(=O)=O [WX175] | 100 to 500
O=C(NCCc1ccc(Cl)cc1)c1ccc2c(c1)NC(=O)c1cccn1S2(=O)=O [WX301] | ≤ 100
O=C(NCCc1ccc(F)cc1)c1ccc2c(c1)NC(=O)c1cccn1S2(=O)=O [WX216] | ≤ 100
O=C(NCc1ccc(F)cc1)c1ccc2c(c1)NC(=O)c1cccn1S2(=O)=O [WX189] | 100 to 500
O=C(NCCc1cnco1)c1ccc2c(c1)NC(=O)c1cccn1S2(=O)=O [WX206] | 100 to 500
CC(C)c1ncc(CNC(=O)c2ccc3c(c2)NC(=O)c2cccn2S3(=O)=O)s1 [WX254] | 100 to 500
CC(C)(C)OC(=O)N1CCCC1CNC(=O)c1ccc2c(c1)NC(=O)c1cccn1S2(=O)=O (stereo not shown) [WX198] | 100 to 500
O=C(NCCN1CCCS1(=O)=O)c1ccc2c(c1)NC(=O)c1cccn1S2(=O)=O [WX226] | 500 to 1000
COC1(CCNC(=O)c2ccc3c(c2)NC(=O)c2cccn2S3(=O)=O)CC1 [WX223] | 500 to 1000
O=C(NCc1cccc(F)c1)c1ccc2c(c1)NC(=O)c1cccn1S2(=O)=O [WX239] | ≤ 100
Cc1cc2n(c1)S(=O)(=O)c1ccc(C(=O)NCCC3CCCO3)cc1NC2=O (stereo not shown) [WX186] | ≤ 100
O=C(NCc1ccccn1)c1ccc2c(c1)NC(=O)c1cccn1S2(=O)=O [WX176] | 1000 to 10000

SMILES | EC50 [nM]
CC(C)OC(=O)N1CCC(CNC(=O)c2ccc3c(c2)NC(=O)c2cccn2S3(=O)=O)CC1 [WX285] | 100 to 500
CN1CCOC(CCNC(=O)c2ccc3c(c2)NC(=O)c2cccn2S3(=O)=O)C1 (stereo not shown) [WX326] | ≤ 100
O=C(NCCOc1cccnc1)c1ccc2c(c1)NC(=O)c1cccn1S2(=O)=O [WX295] | 100 to 500
CC(C)(C)OC(=O)N1CCC(CCNC(=O)c2ccc3c(c2)NC(=O)c2cccn2S3(=O)=O)CC1 [WX197] | 100 to 500
O=C(NCCc1cccc(F)c1)c1ccc2c(c1)NC(=O)c1cccn1S2(=O)=O [WX237] | ≤ 100
Cc1ccc2ncc(CNC(=O)c3ccc4c(c3)NC(=O)c3cccn3S4(=O)=O)n2c1 [WX261] | 100 to 500
O=C(NCc1cccnc1)c1ccc2c(c1)NC(=O)c1cccn1S2(=O)=O [WX220] | ≤ 100
COC(=O)N1CCOC(CCNC(=O)c2ccc3c(c2)NC(=O)c2cccn2S3(=O)=O)C1 (stereo not shown) [WX323] | ≤ 100
CC(C)(C)OC(=O)N1CCC(CNC(=O)c2ccc3c(c2)NC(=O)c2cccn2S3(=O)=O)CC1 [WX200] | ≤ 100
CS(=O)(=O)CCCNC(=O)c1ccc2c(c1)NC(=O)c1cccn1S2(=O)=O [WX190] | 500 to 1000
Cn1nccc1CNC(=O)c1ccc2c(c1)NC(=O)c1cccn1S2(=O)=O [WX263] | 500 to 1000
O=C(NCCC(F)(F)F)c1ccc2c(c1)NC(=O)c1cccn1S2(=O)=O [WX230] | 100 to 500
CN(C)c1ncc(CNC(=O)c2ccc3c(c2)NC(=O)c2cccn2S3(=O)=O)s1 [WX233] | ≤ 100
O=C(NCc1cnc2ccccn12)c1ccc2c(c1)NC(=O)c1cccn1S2(=O)=O [WX267] | 100 to 500
O=C(NCCc1ccccc1)c1ccc2c(c1)NC(=O)c1cccn1S2(=O)=O [WX218] | ≤ 100
Cc1ccsc1CNC(=O)c1ccc2c(c1)NC(=O)c1cccn1S2(=O)=O [WX259] | 100 to 500
O=C(NCC1CCOC1)c1ccc2c(c1)NC(=O)c1cccn1S2(=O)=O (stereo not shown) [WX280] | 100 to 500
Cc1ccc(CNC(=O)c2ccc3c(c2)NC(=O)c2cccn2S3(=O)=O)s1 [WX262] | 100 to 500
O=C(NCCC1CCCCCO1)c1ccc2c(c1)NC(=O)c1cccn1S2(=O)=O (stereo not shown) [WX318] | ≤ 100
O=C(NCCC1COCCOC1)c1ccc2c(c1)NC(=O)c1cccn1S2(=O)=O [WX321] | 100 to 500
O=C(NCCC1CCCO1)c1ccc2c(c1)NC(=O)c1cc(Cl)cn1S2(=O)=O (stereo not shown) [WX143] | ≤ 100
Cn1cc(CNC(=O)c2ccc3c(c2)NC(=O)c2cccn2S3(=O)=O)cn1 [WX272] | 100 to 500
O=C(NCCC1CCCCO1)c1ccc2c(c1)NC(=O)c1cc(Br)cn1S2(=O)=O (stereo not shown) [WX312] | ≤ 100
O=C(NCc1cnc(Cl)s1)c1ccc2c(c1)NC(=O)c1cccn1S2(=O)=O [WX257] | ≤ 100
N#Cc1ccc(-c2ncc(CNC(=O)c3ccc4c(c3)NC(=O)c3cccn3S4(=O)=O)s2)cc1 [WX298] | ≤ 100
